Laboratory results from patent US6465455B1, “Benzamide derivatives for the treatment of diseases mediated by cytokines” (AstraZeneca AB, priority 1998, dated 2002).

Row | SMILES | melting point [°C]
1 | COc1ccc(C(=O)Nc2cc(NC(=O)c3cccc(N4CCOCC4)c3)ccc2Cl)cc1OC [Example 4, N-[2-chloro-5-(3-morpholinobenzamido)phenyl]-3,4-dimethoxybenzamide] | 147.9 to 148.3
2 | CC(=O)Oc1ccc(C(=O)Nc2ccc(Cl)c(NC(=O)c3ccc(C#N)cc3)c2)cc1 [Example 14, N-[5-(4-acetoxybenzamido)-2-chlorophenyl]-4-cyanobenzamide] | 195 to 196
